From paper PMC9516332 (Frontiers in Oncology, 2022) come the findings set out here.

Where two headings read alike, the source gives them in different places.

Common to all, as to test: Kinase panel profiling at 1 µmol/L (MSA or IMAP), percentage inhibition
Holding throughout (type): biochemical

Experiment [1] deals with panel of 255 wild-type kinases (Homo sapiens, UniProt Q13153). Conditions: PAK1; 1 µmol/L single concentration; read-out: %-inhibition, PAK1.
Experiment [2] concerns the target panel of 255 wild-type kinases (Homo sapiens, UniProt O60674). To be noted: kinase JAK2; 1 µmol/L single concentration; read-out: %-inhibition at 1 µmol/L, JAK2.
Experiment [3] deals with panel of 255 wild-type kinases (Homo sapiens, UniProt P08581). To be noted: MET; 1 µmol/L single concentration.
The target in experiment [4] is panel of 255 wild-type kinases (Homo sapiens, UniProt Q00534). To be noted: CDK6/CycD3 kinase assay; 1 µmol/L single concentration; read-out: %-inhibition CDK6/CycD3.
Experiment [5] deals with panel of 255 wild-type kinases (Homo sapiens, UniProt P12931). To be noted: kinase SRC; 1 µmol/L single concentration; read-out: %-inhibition at 1 µmol/L, SRC.
Experiment [6] has as its target panel of 255 wild-type kinases (Homo sapiens, UniProt P35968). Conditions: read-out: %-inhibition at 1 µmol/L, KDR.
The target of experiment [7] is T1, panel of 255 wild-type kinases (Homo sapiens, UniProt Q9H093).
T1 sequence (Q9H093 1-628): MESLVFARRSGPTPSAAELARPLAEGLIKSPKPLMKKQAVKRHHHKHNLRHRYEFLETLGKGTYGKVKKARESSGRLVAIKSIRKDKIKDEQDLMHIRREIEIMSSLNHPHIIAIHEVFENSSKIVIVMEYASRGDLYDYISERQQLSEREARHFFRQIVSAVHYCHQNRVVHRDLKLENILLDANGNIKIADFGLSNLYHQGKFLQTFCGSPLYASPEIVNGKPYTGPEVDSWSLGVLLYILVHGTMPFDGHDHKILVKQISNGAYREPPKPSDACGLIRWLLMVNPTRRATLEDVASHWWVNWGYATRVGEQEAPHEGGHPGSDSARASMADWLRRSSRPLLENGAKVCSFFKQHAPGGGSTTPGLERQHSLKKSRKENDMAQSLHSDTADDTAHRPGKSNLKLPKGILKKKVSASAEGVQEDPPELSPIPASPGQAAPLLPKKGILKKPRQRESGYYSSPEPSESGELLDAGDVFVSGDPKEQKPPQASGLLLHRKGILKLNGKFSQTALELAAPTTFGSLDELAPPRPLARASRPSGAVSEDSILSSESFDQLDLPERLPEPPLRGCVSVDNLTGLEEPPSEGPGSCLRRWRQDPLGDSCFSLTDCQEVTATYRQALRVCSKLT
To be noted: NuaK2; 1 µmol/L single concentration; read-out: %-inhibition, NuaK2.

Experiment [8] deals with panel of 255 wild-type kinases (Homo sapiens, UniProt P06213). Conditions: kinase INSR; 1 µmol/L single concentration; read-out: %-inhibition at 1 µmol/L, INSR.
The target in experiment [9] is panel of 255 wild-type kinases (Homo sapiens, UniProt P41240). To be noted: kinase CSK; 1 µmol/L single concentration; read-out: %-inhibition at 1 µmol/L, CSK.
The target in experiment [10] is panel of 255 wild-type kinases (Homo sapiens, UniProt P07948). Conditions: kinase LYNa; 1 µmol/L single concentration; read-out: %-inhibition at 1 µmol/L, LYNa.
The target of experiment [11] is panel of 255 wild-type kinases (Homo sapiens, UniProt P53350). Conditions: kinase PLK1; 1 µmol/L single concentration; read-out: %-inhibition at 1 µmol/L, PLK1.
The target of experiment [12] is T2, panel of 255 wild-type kinases (Homo sapiens, UniProt Q13188).
T2 sequence (Q13188 1-491): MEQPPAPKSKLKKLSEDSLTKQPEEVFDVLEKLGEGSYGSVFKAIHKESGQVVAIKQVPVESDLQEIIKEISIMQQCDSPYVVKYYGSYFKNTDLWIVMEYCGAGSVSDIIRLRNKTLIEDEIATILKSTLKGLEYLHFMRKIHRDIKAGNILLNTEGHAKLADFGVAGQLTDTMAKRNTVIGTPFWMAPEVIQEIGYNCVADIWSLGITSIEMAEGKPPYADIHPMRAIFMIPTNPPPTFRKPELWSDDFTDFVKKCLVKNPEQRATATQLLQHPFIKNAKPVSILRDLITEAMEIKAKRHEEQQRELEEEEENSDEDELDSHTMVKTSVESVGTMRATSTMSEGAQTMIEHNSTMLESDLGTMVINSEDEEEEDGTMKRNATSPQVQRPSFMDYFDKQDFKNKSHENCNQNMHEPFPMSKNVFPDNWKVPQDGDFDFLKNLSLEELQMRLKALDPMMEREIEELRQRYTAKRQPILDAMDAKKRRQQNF
Conditions: MST2; 1 µmol/L single concentration; read-out: %-inhibition, MST2.

The mark [13] stands for this setting: kinase KDR, 1 µmol/L single concentration.

With `Cn1cnc2c(F)c(Nc3ccc(Br)cc3F)c(C(=O)NOCCO)cc21` [binimetinib], the inhibition at 1 µM in [1] was 5%; in [2] it was -0.409%; in experiment [3], 0.851%; in experiment [4], -0.0739%; in experiment [5] it was -0.525%; in [6] (setting [13]), 15%. For the same compound, the inhibition at 1 µM is 0.626% in experiment [7]; 6% in [8]; -1.11% in experiment [9]; 3.76% in experiment [10]; 0.406% in experiment [11]; -1.64% in experiment [12].

Turning to `COc1cc2ncnc(Nc3ccc(F)c(Cl)c3)c2cc1NC(=O)/C=C/CN1CCCCC1` [dacomitinib], the inhibition at 1 µM was 0.38% in [1]; 0.856% in experiment [2]; 24% in experiment [3]; -6% in experiment [4]; 44% in experiment [5]; 42% in experiment [6] (setting [13]). In addition, the inhibition at 1 µM in experiment [7] worked out at 2%; in experiment [8], 1.81%; in [9], 18%; in experiment [10], 79%; in experiment [11], 3.78%; in experiment [12], 2%.

In the case of `C[C@H](Nc1ncnc2nc[nH]c12)c1cc2cccc(Cl)c2c(=O)n1-c1ccccc1` [duvelisib], the inhibition at 1 µM in experiment [1] is -0.68%; in [2], 3.29%; in experiment [3], 1.63%; in experiment [4], 1.75%; in experiment [5] it was -1.74%; in [6] (setting [13]) it was 11%. Besides, the inhibition at 1 µM in experiment [7] is 3.49%; in experiment [8] it was -0.398%; in experiment [9] it was 1.86%; in [10], 0.825%; in experiment [11], 0.784%; in experiment [12], 4%.

As for `COC(=O)N[C@@H](C)CNc1nccc(-c2cn(C(C)C)nc2-c2cc(Cl)cc(NS(C)(=O)=O)c2F)n1` [encorafenib], the inhibition at 1 µM in experiment [1] was 12%; in experiment [2], 2.62%; in experiment [3] it was 2.82%; in experiment [4], 6%; in [5], -2.16%; in experiment [6] (setting [13]), 22%. Besides, the inhibition at 1 µM in [7] was 3.35%; in [8], 9%; in experiment [9] it was 1.58%; in [10], 5%; in [11], -2.56%; in experiment [12], 3%.

`CCc1nc(C(N)=O)c(Nc2ccc(N3CCC(N4CCN(C)CC4)CC3)c(OC)c2)nc1NC1CCOCC1` [gilteritinib]: the inhibition at 1 µM in experiment [1] was found to be 4%; in experiment [2], 95%; in experiment [3], 90%; in experiment [4], 4%; in experiment [5] it was 89%; in experiment [6] (setting [13]) it was 104%. The inhibition at 1 µM in [7] stood at 73%; in experiment [8], 100%; in experiment [9] it was 23%; in [10], 88%; in experiment [11] it was 7.52%; in [12] it was 14%.

As for `CCN1CCN(c2ccc(Nc3cc(N(C)C(=O)Nc4c(Cl)c(OC)cc(OC)c4Cl)ncn3)cc2)CC1` [infigratinib], the inhibition at 1 µM is 5% in [1]; 2.11% in experiment [2]; 0.848% in experiment [3]; 17% in [4]; 37% in experiment [5]; 92% in experiment [6] (setting [13]). Moreover, the inhibition at 1 µM is 9% in [7]; 17% in experiment [8]; 2.24% in [9]; 84% in [10]; 0.613% in experiment [11]; -2.14% in experiment [12].

Take `O=C(Nc1cnn2ccc(N3CCC[C@@H]3c3cc(F)ccc3F)nc12)N1CC[C@H](O)C1` [larotrectinib]: the inhibition at 1 µM in [1] is -3.56%; in experiment [2], 46%; in [3], -4%; in experiment [4], -0.0563%; in experiment [5], -4.39%; in [6] (setting [13]), 6%. In addition, the inhibition at 1 µM is 0.385% in [7]; 2% in [8]; -5% in experiment [9]; 5% in experiment [10]; -1.17% in [11]; 0.182% in experiment [12].

Turning to `C[C@H]1Oc2cc(cnc2N)-c2c(nn(C)c2C#N)CN(C)C(=O)c2ccc(F)cc21` [lorlatinib], the inhibition at 1 µM was -2.12% in [1]; 69% in experiment [2]; 4.66% in experiment [3]; 2.65% in [4]; 28% in experiment [5]; 7% in experiment [6] (setting [13]). Also, the inhibition at 1 µM in [7] was determined as 30%; in [8], 64%; in [9], 1.12%; in experiment [10] it was 21%; in experiment [11] it was 2.12%; in experiment [12], 8%.

On to `CCN1C(=O)N(c2c(F)c(OC)cc(OC)c2F)Cc2cnc3[nH]c(CN4CCOCC4)cc3c21` [pemigatinib], for which the inhibition at 1 µM is -3.62% in [1]; -2.85% in experiment [2]; -2.49% in experiment [3]; 48% in [4]; 2.67% in [5]; 96% in [6]. The inhibition at 1 µM in experiment [7] is 1.46%; in experiment [8] it was 9%; in experiment [9], 2.28%; in experiment [10], 66%; in experiment [11], -1.52%; in experiment [12] it was 7%.

Consider `CO[C@]1(C(=O)N[C@@H](C)c2ccc(-n3cc(F)cn3)nc2)CC[C@H](c2nc(C)cc(Nc3cc(C)[nH]n3)n2)CC1` [pralsetinib], for which the inhibition at 1 µM is 9% in experiment [1]; 98% in experiment [2]; 5.27% in [3]; -1.2% in [4]; 94% in [5]; 95% in experiment [6] (setting [13]). For the same compound, the inhibition at 1 µM in [7] was 75%; in experiment [8], 10%; in experiment [9], 0.35%; in experiment [10], 92%; in experiment [11] it was -2.47%; in experiment [12], 5.55%.
